In publication PMC3349818 (Journal of Medicinal Chemistry, 2012):

Key:
[1] = Pharmacokinetic study in female CD1 mice, single oral dose; settings: CD1, mouse, in vivo, 200 mg/kg
[2] = In vitro liver microsome assay, mouse; type: in vitro ADME; settings: predicted from mouse liver microsome stability

Compound | AUC [1] [µM·h] | predicted in vivo mouse CL′inf [2] [mL/min/kg]
CCOC(=O)c1c(-c2cccc(Cl)c2)[nH]c2cc(OC)c(F)cc2c1=O [20g, Ethyl 2-(3-chlorophenyl)-6-fluoro-7-methoxy-4-oxo-1,4-dihydroquinoline-3-carboxylate] | > 125 | 9.4
CCOC(=O)c1c(-c2cccc(Br)c2)[nH]c2cc(OC)c(F)cc2c1=O [20h] | > 70 | –
